In US10670605B2, “Cysteine reactive probes and uses thereof” (The Scripps Research Institute, priority 2015, dated 2020):
Counter-ions that a name gives are not always drawn.

Assays:
Assay in all cases: isoTOP-ABPP of compound-treated primary human T cells
Type in all cases: cell-based
[1] = biological target: Cys residues in primary human T cells (Homo sapiens, UniProt O00170); settings: AIP C122 (O00170)
[2] = biological target: T1, Cys residues in primary human T cells (Homo sapiens, UniProt Q9Y6C9); settings: MTCH2 C296 (Q9Y6C9)
T1 sequence (Q9Y6C9 1-303): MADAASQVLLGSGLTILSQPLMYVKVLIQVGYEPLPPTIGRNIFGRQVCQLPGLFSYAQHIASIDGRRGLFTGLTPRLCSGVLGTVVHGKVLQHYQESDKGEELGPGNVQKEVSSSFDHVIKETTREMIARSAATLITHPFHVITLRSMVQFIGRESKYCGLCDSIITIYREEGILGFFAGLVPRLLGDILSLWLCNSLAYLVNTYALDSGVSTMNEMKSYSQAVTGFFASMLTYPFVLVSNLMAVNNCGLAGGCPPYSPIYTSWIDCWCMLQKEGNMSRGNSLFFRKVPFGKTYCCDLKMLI

[3] = biological target: Cys residues in primary human T cells (Homo sapiens, UniProt Q9NWZ3); settings: IRAK4 C13 (Q9NWZ3)
[4] = biological target: Cys residues in primary human T cells (Homo sapiens, UniProt Q96CW5); settings: TUBGCP3 C194 (Q960W5)
[5] = biological target: T2, Cys residues in primary human T cells (Homo sapiens, UniProt Q96GW9); settings: MARS2 C425 (Q96GW9)
T2 sequence (Q96GW9 30-593): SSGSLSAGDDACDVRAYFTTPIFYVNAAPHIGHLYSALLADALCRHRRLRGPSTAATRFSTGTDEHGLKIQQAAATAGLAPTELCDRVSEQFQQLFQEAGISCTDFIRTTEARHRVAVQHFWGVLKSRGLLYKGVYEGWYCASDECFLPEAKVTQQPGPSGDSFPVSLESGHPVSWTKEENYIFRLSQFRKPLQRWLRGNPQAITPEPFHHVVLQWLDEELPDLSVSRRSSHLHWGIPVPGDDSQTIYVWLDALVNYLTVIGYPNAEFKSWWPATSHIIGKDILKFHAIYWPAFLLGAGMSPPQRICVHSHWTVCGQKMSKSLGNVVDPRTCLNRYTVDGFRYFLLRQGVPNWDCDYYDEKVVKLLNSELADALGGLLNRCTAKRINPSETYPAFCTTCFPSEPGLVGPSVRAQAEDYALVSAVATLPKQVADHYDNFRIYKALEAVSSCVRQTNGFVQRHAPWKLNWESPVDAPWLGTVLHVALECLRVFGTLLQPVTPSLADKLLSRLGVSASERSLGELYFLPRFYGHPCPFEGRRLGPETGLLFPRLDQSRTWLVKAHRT

[6] = biological target: Cys residues in primary human T cells (Homo sapiens, UniProt Q7Z4W1); settings: DCXR C244 (Q7Z4W1)
[7] = biological target: T3, Cys residues in primary human T cells (Homo sapiens, UniProt O95336); settings: PGLS C32 (095336)
T3 sequence (O95336 1-258): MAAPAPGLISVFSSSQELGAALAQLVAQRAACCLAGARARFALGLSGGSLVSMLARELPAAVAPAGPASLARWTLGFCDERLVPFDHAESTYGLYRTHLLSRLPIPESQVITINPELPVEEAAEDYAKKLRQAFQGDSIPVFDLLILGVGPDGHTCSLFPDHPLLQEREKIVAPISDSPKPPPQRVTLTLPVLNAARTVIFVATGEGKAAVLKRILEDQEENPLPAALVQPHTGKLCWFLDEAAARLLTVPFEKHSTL

[8] = biological target: T4, Cys residues in primary human T cells (Homo sapiens, UniProt Q96I15); settings: SCLY C22 (Q96115)
T4 sequence (Q96I15 1-445): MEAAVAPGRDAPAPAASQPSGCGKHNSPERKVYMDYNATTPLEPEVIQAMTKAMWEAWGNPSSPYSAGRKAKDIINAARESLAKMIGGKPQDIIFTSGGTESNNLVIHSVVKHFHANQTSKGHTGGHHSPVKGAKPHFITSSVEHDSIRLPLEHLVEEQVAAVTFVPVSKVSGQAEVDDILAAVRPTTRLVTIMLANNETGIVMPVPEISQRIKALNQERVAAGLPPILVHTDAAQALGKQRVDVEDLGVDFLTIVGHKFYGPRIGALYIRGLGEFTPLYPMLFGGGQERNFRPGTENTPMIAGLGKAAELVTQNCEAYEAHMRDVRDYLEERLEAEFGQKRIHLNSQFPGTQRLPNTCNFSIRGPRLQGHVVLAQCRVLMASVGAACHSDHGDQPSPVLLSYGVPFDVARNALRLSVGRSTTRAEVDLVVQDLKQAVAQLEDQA

[9] = biological target: Cys residues in primary human T cells (Homo sapiens, UniProt Q86YS7); settings: KIAA0528 C993 (Q86YS7)
[10] = biological target: Cys residues in primary human T cells (Homo sapiens, UniProt Q14005); settings: IL16 C1004 (Q14005)
Cys residues in primary human T cells (Homo sapiens, UniProt Q14005), sequence (Q14005 whole entry): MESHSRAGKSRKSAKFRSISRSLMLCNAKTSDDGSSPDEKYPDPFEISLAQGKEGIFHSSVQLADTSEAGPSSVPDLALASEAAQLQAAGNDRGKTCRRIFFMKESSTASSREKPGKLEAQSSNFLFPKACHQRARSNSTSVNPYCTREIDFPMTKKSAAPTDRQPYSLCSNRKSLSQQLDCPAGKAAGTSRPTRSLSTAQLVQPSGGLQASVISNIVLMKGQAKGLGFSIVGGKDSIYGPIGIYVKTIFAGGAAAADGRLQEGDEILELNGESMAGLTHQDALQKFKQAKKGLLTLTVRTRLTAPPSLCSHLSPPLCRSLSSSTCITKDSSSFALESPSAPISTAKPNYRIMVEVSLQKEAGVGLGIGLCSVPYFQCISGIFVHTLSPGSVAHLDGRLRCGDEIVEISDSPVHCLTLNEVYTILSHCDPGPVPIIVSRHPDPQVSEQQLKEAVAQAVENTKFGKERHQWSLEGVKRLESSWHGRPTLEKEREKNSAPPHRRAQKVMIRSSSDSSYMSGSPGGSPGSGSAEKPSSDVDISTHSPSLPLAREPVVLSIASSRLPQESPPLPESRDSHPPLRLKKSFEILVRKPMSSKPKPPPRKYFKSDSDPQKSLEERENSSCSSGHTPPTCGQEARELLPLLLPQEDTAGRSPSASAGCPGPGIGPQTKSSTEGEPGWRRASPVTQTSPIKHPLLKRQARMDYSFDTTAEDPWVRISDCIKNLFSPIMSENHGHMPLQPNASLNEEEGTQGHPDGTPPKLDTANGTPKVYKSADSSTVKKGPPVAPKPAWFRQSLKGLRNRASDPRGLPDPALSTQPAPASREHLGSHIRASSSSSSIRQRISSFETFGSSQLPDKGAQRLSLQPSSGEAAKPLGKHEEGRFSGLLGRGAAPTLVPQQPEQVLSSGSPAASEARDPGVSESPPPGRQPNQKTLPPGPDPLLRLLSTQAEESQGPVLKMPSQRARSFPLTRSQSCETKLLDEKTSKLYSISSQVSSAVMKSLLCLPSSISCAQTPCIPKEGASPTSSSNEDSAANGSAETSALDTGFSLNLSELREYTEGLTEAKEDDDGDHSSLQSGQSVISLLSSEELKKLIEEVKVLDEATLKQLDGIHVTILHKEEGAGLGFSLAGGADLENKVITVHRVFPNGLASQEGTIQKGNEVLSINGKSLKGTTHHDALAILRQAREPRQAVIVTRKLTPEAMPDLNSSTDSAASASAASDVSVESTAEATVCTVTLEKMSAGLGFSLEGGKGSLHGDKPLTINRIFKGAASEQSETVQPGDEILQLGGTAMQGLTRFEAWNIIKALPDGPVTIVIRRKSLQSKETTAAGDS

Cys residues in primary human T cells (Homo sapiens, UniProt Q7Z4W1), sequence (Q7Z4W1 whole entry): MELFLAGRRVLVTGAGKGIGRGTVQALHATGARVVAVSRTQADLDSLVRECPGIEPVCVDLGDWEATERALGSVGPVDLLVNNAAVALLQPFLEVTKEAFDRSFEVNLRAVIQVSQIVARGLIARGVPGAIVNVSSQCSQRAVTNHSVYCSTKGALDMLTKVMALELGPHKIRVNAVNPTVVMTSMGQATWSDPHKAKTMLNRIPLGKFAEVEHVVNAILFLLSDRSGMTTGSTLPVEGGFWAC
Cys residues in primary human T cells (Homo sapiens, UniProt O00170), sequence (O00170 whole entry): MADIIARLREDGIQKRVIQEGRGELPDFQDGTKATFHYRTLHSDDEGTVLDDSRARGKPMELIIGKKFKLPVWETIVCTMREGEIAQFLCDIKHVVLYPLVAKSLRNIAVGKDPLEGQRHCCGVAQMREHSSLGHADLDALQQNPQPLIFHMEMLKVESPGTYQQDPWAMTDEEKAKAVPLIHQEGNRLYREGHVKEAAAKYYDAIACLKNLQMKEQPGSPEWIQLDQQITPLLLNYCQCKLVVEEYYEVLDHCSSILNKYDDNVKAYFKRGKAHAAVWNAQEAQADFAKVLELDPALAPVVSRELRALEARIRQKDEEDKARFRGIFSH
Cys residues in primary human T cells (Homo sapiens, UniProt Q96CW5), sequence (Q96CW5 whole entry): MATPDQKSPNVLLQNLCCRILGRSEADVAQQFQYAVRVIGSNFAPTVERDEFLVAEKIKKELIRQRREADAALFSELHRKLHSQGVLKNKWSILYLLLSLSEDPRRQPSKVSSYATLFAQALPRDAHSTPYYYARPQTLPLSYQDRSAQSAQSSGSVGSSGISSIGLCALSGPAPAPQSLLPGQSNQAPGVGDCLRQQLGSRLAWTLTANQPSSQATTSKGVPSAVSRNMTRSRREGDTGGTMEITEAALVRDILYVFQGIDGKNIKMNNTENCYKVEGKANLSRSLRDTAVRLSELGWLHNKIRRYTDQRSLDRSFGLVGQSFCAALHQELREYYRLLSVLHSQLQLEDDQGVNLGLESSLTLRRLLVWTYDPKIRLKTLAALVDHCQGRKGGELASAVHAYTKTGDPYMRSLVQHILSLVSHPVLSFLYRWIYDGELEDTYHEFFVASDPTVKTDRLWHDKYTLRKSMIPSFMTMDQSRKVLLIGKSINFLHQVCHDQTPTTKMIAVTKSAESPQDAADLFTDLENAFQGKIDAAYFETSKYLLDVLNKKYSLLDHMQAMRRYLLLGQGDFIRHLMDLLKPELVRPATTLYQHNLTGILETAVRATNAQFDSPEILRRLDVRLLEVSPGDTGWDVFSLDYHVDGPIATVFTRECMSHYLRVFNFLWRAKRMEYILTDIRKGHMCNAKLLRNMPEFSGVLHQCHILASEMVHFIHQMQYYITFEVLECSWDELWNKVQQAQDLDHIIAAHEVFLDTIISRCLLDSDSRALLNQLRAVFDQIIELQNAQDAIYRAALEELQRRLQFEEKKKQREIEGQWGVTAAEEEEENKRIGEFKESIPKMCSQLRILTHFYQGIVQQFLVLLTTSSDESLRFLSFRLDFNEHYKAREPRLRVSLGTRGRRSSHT
Cys residues in primary human T cells (Homo sapiens, UniProt Q86YS7), sequence (Q86YS7 whole entry): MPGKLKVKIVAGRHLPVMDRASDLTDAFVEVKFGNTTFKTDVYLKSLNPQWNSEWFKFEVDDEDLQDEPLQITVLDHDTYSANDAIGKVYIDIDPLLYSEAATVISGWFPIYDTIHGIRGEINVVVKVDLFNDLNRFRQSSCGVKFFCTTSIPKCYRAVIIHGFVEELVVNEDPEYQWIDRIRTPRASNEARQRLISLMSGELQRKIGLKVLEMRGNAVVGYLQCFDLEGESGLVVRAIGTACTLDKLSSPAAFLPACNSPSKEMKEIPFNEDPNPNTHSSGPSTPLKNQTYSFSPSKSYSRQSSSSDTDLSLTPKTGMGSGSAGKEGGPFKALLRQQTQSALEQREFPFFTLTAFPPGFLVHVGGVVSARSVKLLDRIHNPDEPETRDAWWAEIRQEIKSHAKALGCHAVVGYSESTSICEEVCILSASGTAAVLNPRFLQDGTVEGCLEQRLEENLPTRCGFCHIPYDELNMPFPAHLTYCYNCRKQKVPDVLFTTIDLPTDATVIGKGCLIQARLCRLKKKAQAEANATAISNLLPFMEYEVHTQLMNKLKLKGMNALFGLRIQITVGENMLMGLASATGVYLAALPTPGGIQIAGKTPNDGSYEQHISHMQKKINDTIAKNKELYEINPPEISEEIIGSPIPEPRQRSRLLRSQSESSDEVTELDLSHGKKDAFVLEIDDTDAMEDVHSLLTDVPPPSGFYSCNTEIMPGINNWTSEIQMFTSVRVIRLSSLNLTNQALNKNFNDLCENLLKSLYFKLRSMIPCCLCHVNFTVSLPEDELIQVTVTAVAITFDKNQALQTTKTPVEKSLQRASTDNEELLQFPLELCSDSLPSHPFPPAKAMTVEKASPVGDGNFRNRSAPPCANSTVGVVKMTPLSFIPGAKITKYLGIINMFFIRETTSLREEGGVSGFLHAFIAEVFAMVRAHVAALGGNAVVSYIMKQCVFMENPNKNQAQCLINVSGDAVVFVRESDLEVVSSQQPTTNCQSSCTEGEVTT
Cys residues in primary human T cells (Homo sapiens, UniProt Q9NWZ3), sequence (Q9NWZ3 whole entry): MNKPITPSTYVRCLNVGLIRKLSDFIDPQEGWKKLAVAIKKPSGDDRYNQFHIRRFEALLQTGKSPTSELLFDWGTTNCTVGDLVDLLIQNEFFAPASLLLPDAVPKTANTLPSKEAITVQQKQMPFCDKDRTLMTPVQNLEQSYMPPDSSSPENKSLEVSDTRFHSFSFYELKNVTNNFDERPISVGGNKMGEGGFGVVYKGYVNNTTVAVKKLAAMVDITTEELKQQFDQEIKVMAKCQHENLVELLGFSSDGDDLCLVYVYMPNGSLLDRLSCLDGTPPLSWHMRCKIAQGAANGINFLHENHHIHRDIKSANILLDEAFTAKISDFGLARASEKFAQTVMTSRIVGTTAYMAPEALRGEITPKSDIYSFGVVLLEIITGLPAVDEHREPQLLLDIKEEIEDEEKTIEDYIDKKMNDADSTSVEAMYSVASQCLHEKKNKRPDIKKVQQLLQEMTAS

For COC(=O)/C=C/C(=O)OC [DMF, dimethyl fumarate], the “R value (DMSO/DMF)” value ([1]; DMF 50 μM 2h) was 3.05, the “R value (DMSO/DMF)” value ([1]; DMF 50 μM 4h) was 6.14 and the “R value (DMSO/DMF)” value ([2]; DMF 10 μM 4h) was 1.68. For the same compound, the “R value (DMSO/DMF)” value ([2]; DMF 50 μM 1h) was 1.81, the “R value (DMSO/DMF)” value ([2]; DMF 50 μM 2h) was 2.44 and the “R value (DMSO/DMF)” value ([2]; DMF 50 μM 4h) was 4.3. For the same compound, the “R value (DMSO/DMF)” value ([3]; DMF 50 μM 1h) was 8.3, the “R value (DMSO/DMF)” value ([3]; DMF 50 μM 4h) was 20 and the “R value (DMSO/DMF)” value ([4]; DMF 50 μM 2h) was 2.44. The “R value (DMSO/DMF)” value ([4]; DMF 50 μM 4h) was 4.94, the “R value (DMSO/DMF)” value ([5]; DMF 10 μM 4h) was 1.84 and the “R value (DMSO/DMF)” value ([5]; DMF 25 μM 4h) was 2.86. The “R value (DMSO/DMF)” value ([5]; DMF 50 μM 1h) was 2.23, the “R value (DMSO/DMF)” value ([5]; DMF 50 μM 2h) was 4.16 and the “R value (DMSO/DMF)” value ([5]; DMF 50 μM 4h) was 5.3. The “R value (DMSO/DMF)” value ([6]; DMF 10 μM 4h) was 2.3, the “R value (DMSO/DMF)” value ([6]; DMF 50 μM 1h) was 1.29 and the “R value (DMSO/DMF)” value ([6]; DMF 50 μM 2h) was 2.76. The “R value (DMSO/DMF)” value ([6]; DMF 50 μM 4h) was 4.24, the “R value (DMSO/DMF)” value ([7]; DMF 10 μM 4h) was 1.9 and the “R value (DMSO/DMF)” value ([7]; DMF 25 μM 4h) was 5.32. For the same compound, the “R value (DMSO/DMF)” value ([7]; DMF 50 μM 1h) was 3.42, the “R value (DMSO/DMF)” value ([7]; DMF 50 μM 2h) was 9.49 and the “R value (DMSO/DMF)” value ([7]; DMF 50 μM 4h) was 11.51. The “R value (DMSO/DMF)” value ([8]; DMF 10 μM 4h) was 1.31, the “R value (DMSO/DMF)” value ([8]; DMF 25 μM 4h) was 2.16 and the “R value (DMSO/DMF)” value ([8]; DMF 50 μM 1h) was 1.9. For the same compound, the “R value (DMSO/DMF)” value ([8]; DMF 50 μM 2h) was 2.16, the “R value (DMSO/DMF)” value ([8]; DMF 50 μM 4h) was 4.04 and the “R value (DMSO/DMF)” value ([9]; DMF 10 μM 4h) was 1.4. For the same compound, the “R value (DMSO/DMF)” value ([9]; DMF 50 μM 4h) was 4.38, the “R value (DMSO/DMF)” value ([10]; DMF 10 μM 4h) was 1.37 and the “R value (DMSO/DMF)” value ([10]; DMF 50 μM 1h) was 1.95. For the same compound, the “R value (DMSO/DMF)” value ([10]; DMF 50 μM 2h) was 3.32 and the “R value (DMSO/DMF)” value ([10]; DMF 50 μM 4h) was 4.13.
